Source: article PMC2248166, “Quantitative peptide binding motifs for 19 human and mouse MHC class I molecules derived using positional scanning combinatorial peptide libraries” (Immunome Research, 2008)
Where a SMILES comes first, the peptide text is derived from it.

Target: HLA B*1501 (Homo sapiens, UniProt P01889, A329T/A93T/A95T/C349S/D201E/D98Y/E187L/E204Q/E69M/E70A/K202T/N87E/Q94N/R155S/R180W/S121R/S35A/S48A/V306I/V36M/Y140S/Y91S)
Test: biochemical
Type: binding

`CSCC[C@H](NC(=O)[C@H](CCC(=O)O)NC(=O)[C@H](C)NC(=O)[C@H](CC(N)=O)NC(=O)[C@H](CCC(=O)O)NC(=O)[C@H](CCCCN)NC(=O)[C@H](CC(N)=O)NC(=O)[C@H](CCSC)NC(=O)[C@@H](N)CC(C)C)C(=O)O` [3102.0802] (H-LMNKENAEM-OH) gave an IC50 of 7.7 nM.
Work on `CC[C@H](C)[C@H](NC(=O)[C@@H](NC(=O)[C@@H](N)CC(C)C)[C@@H](C)CC)C(=O)N[C@@H](CCCCN)C(=O)N[C@@H](CO)C(=O)N[C@@H](CC(=O)O)C(=O)N[C@@H](Cc1c[nH]cn1)C(=O)N[C@@H](CCC(=O)O)C(=O)N[C@@H](Cc1ccccc1)C(=O)O` [3102.0804] (H-LIIKSDHEF-OH) yielded an IC50 of 1.6 nM.
`CC[C@H](C)[C@H](NC(=O)[C@H](CCSC)NC(=O)[C@@H](N)CCC(=O)O)C(=O)N[C@@H](CC(C)C)C(=O)N[C@@H](CO)C(=O)N[C@H](C(=O)N[C@@H](CO)C(=O)N[C@@H](CO)C(=O)N[C@@H](CCSC)C(=O)O)[C@@H](C)O` [3102.0806] (H-EMILSTSSM-OH) showed an IC50 of 1.5 nM.
With `CC[C@H](C)[C@H](NC(=O)[C@H](CCC(N)=O)NC(=O)[C@@H](N)CC(C)C)C(=O)N[C@@H](Cc1ccccc1)C(=O)N[C@@H](CO)C(=O)N[C@@H](CC(N)=O)C(=O)N[C@@H](CO)C(=O)N[C@H](C(=O)NCC(=O)O)C(C)C` [3102.0809] (H-LQIFSNSVG-OH) the IC50 was 2.1 nM.
Work on `CC[C@H](C)[C@H](NC(=O)[C@@H](N)Cc1ccc(O)cc1)C(=O)N[C@@H](CO)C(=O)N[C@@H](CCCCN)C(=O)N[C@H](C(=O)N[C@@H](Cc1ccccc1)C(=O)N[C@@H](CCC(=O)O)C(=O)N[C@@H](Cc1c[nH]cn1)C(=O)N[C@H](C(=O)O)C(C)C)C(C)C` [3102.0810] (H-YISKVFEHV-OH) yielded an IC50 of 94 nM.
`CC(C)C[C@H](N)C(=O)N[C@@H](C)C(=O)N[C@@H](CCCCN)C(=O)N[C@@H](CCCCN)C(=O)N[C@@H](CO)C(=O)N[C@@H](Cc1ccc(O)cc1)C(=O)N[C@H](C(=O)N[C@H](C(=O)N[C@@H](Cc1ccccc1)C(=O)O)C(C)C)C(C)C` [3102.0811] (H-LAKKSYVVF-OH) showed an IC50 of 97 nM.
`C[C@@H](O)[C@H](N)C(=O)N[C@@H](CO)C(=O)NCC(=O)N[C@@H](CCCCN)C(=O)N[C@@H](Cc1ccc(O)cc1)C(=O)N[C@@H](Cc1ccccc1)C(=O)N[C@@H](CO)C(=O)N[C@H](C(=O)N[C@@H](Cc1ccccc1)C(=O)O)[C@@H](C)O` [3102.0812] (H-TSGKYFSTF-OH) gave an IC50 of 86 nM.
In the case of `CC(C)C[C@H](NC(=O)[C@H](CS)NC(=O)[C@H](CO)NC(=O)[C@H](CCCCN)NC(=O)[C@@H](NC(=O)[C@@H](N)CCCCN)C(C)C)C(=O)N[C@@H](CS)C(=O)N[C@@H](CO)C(=O)N[C@@H](Cc1ccccc1)C(=O)O` [3102.0813] (H-KVKSCLCSF-OH), the IC50 is reported as 17 nM.
`CC[C@H](C)[C@H](NC(=O)[C@H](CCC(N)=O)NC(=O)[C@H](CCCNC(=N)N)NC(=O)[C@H](CC(C)C)NC(=O)[C@@H](N)CCCCN)C(=O)N[C@H](C(=O)N[C@@H](C)C(=O)N[C@@H](Cc1ccc(O)cc1)C(=O)N[C@@H](Cc1ccccc1)C(=O)O)C(C)C` [3102.0815] (H-KLRQIVAYF-OH) gave an IC50 of 7.6 nM.
Molecule `CSCC[C@H](NC(=O)[C@@H](NC(=O)[C@H](CC(C)C)NC(=O)[C@H](CC(C)C)NC(=O)[C@H](Cc1ccc(O)cc1)NC(=O)[C@H](CCC(N)=O)NC(=O)[C@@H](N)CC(N)=O)[C@@H](C)O)C(=O)N[C@@H](Cc1ccccc1)C(=O)N[C@@H](Cc1ccccc1)C(=O)O` [3102.0819] (H-NQYLLTMFF-OH) has an IC50 of 1.2 nM.
Molecule `CSCC[C@H](N)C(=O)N[C@@H](CC(C)C)C(=O)N[C@@H](CC(N)=O)C(=O)N[C@H](C(=O)N[C@@H](Cc1ccc(O)cc1)C(=O)NCC(=O)N[C@@H](CCC(=O)O)C(=O)NCC(=O)N[C@@H](Cc1ccccc1)C(=O)O)[C@@H](C)O` [3102.0822] (H-MLNTYGEGF-OH) has an IC50 of 2.3 nM.
`CC(C)C[C@H](NC(=O)[C@@H](NC(=O)[C@H](CCCCN)NC(=O)[C@H](CCCCN)NC(=O)[C@H](C)NC(=O)[C@@H](N)CC(C)C)[C@@H](C)O)C(=O)N[C@@H](C)C(=O)N1CCC[C@H]1C(=O)N[C@@H](Cc1ccccc1)C(=O)O` [3102.0825] (H-LAKKTLAPF-OH) showed an IC50 of 2.1 nM.
`CC[C@H](C)[C@H](NC(=O)[C@@H](NC(=O)[C@@H](N)Cc1ccccc1)[C@@H](C)CC)C(=O)N[C@@H](CCCCN)C(=O)N[C@@H](CO)C(=O)N[C@@H](CO)C(=O)N[C@@H](Cc1ccc(O)cc1)C(=O)N[C@H](C(=O)N[C@@H](Cc1ccccc1)C(=O)O)C(C)C` [3102.0827] (H-FIIKSSYVF-OH) showed an IC50 of 3.2 nM.
In the case of `CC[C@H](C)[C@H](NC(=O)[C@H](Cc1ccc(O)cc1)NC(=O)[C@H](CCSC)NC(=O)[C@@H](N)CC(C)C)C(=O)N[C@@H](CC(C)C)C(=O)NCC(=O)N[C@H](C(=O)N[C@@H](Cc1ccc(O)cc1)C(=O)NCC(=O)O)[C@@H](C)O` [3102.0828] (H-LMYILGTYG-OH), the IC50 is reported as 62 nM.
For `CC[C@H](C)[C@H](NC(=O)[C@@H](NC(=O)[C@@H](NC(=O)[C@H](C)NC(=O)[C@H](CCSC)NC(=O)[C@@H](N)Cc1ccc(O)cc1)[C@@H](C)O)[C@@H](C)O)C(=O)N[C@@H](CC(C)C)C(=O)N[C@@H](CCC(=O)O)C(=O)N[C@@H](CCSC)C(=O)O` [3102.0830] (H-YMATTILEM-OH), the IC50 was 2.2 nM.
In the case of `CSCC[C@H](NC(=O)[C@@H](NC(=O)[C@H](CCC(=O)O)NC(=O)[C@H](CCSC)NC(=O)[C@H](CC(C)C)NC(=O)[C@H](CCSC)NC(=O)[C@H](Cc1ccccc1)NC(=O)[C@@H](NC(=O)[C@H](C)N)C(C)C)[C@@H](C)O)C(=O)O` [3102.0831] (H-AVFMLMETM-OH), the IC50 is reported as 26 nM.
In the case of `CC(C)C[C@H](NC(=O)[C@H](Cc1c[nH]cn1)NC(=O)[C@@H](NC(=O)[C@H](Cc1ccccc1)NC(=O)[C@H](Cc1ccc(O)cc1)NC(=O)[C@H](CS)NC(=O)[C@H](Cc1ccc(O)cc1)NC(=O)[C@H](CC(C)C)NC(=O)CN)[C@@H](C)O)C(=O)O` [3102.0832] (H-GLYCYFTHL-OH), the IC50 is reported as 6.9 nM.
Molecule `NCCCC[C@H](NC(=O)[C@H](CCCCN)NC(=O)[C@H](CO)NC(=O)[C@@H](N)CCCCN)C(=O)N[C@@H](Cc1ccc(O)cc1)C(=O)N[C@@H](CCC(=O)O)C(=O)NCC(=O)N1CCC[C@H]1C(=O)N[C@@H](Cc1ccccc1)C(=O)O` [3102.0833] (H-KSKKYEGPF-OH) has an IC50 of 1.9 nM.
`CSCC[C@H](NC(=O)[C@@H](N)CC(C)C)C(=O)N[C@@H](CC(N)=O)C(=O)N[C@@H](CC(N)=O)C(=O)N[C@@H](CC(C)C)C(=O)N[C@@H](CC(=O)O)C(=O)N[C@H](C(=O)N[C@@H](CC(C)C)C(=O)N[C@@H](Cc1ccccc1)C(=O)O)[C@@H](C)O` [3102.0836] (H-LMNNLDTLF-OH) showed an IC50 of 86 nM.
In the case of `CC[C@H](C)[C@H](NC(=O)[C@H](CO)NC(=O)[C@@H](NC(=O)[C@H](CS)NC(=O)[C@@H](NC(=O)[C@H](CO)NC(=O)[C@H](CCCNC(=N)N)NC(=O)[C@H](CCSC)NC(=O)[C@@H](N)CC(C)C)[C@@H](C)CC)C(C)C)C(=O)O` [3102.0838] (H-LMRSICVSI-OH), the IC50 is reported as 63 nM.
In the case of `CSCC[C@H](N)C(=O)N[C@@H](CCC(=O)O)C(=O)N[C@@H](CCCNC(=N)N)C(=O)N[C@@H](Cc1ccccc1)C(=O)N[C@@H](CC(N)=O)C(=O)N[C@@H](CS)C(=O)N[C@@H](CO)C(=O)N[C@@H](CO)C(=O)N[C@@H](Cc1ccccc1)C(=O)O` [3102.0839] (H-MERFNCSSF-OH), the IC50 is reported as 1.6 nM.
With `CC(C)C[C@H](N)C(=O)N[C@@H](CO)C(=O)N[C@@H](CCCNC(=N)N)C(=O)N[C@H](C(=O)N[C@@H](Cc1ccccc1)C(=O)N[C@@H](Cc1ccccc1)C(=O)N[C@@H](CS)C(=O)N[C@H](C(=O)N[C@@H](Cc1ccc(O)cc1)C(=O)O)C(C)C)C(C)C` [3102.0840] (H-LSRVFFCVY-OH) the IC50 was 2.9 nM.
`CSCC[C@H](NC(=O)[C@H](Cc1c[nH]cn1)NC(=O)[C@@H]1CCCN1C(=O)[C@H](CC(C)C)NC(=O)[C@H](Cc1ccccc1)NC(=O)[C@H](CC(N)=O)NC(=O)[C@H](Cc1c[nH]cn1)NC(=O)[C@H](CC(C)C)NC(=O)[C@@H](N)CCSC)C(=O)O` [3102.0846] (H-MLHNFLPHM-OH) showed an IC50 of 41 nM.
Work on `CC(C)C[C@H](NC(=O)[C@@H]1CCCN1C(=O)[C@H](CCCNC(=N)N)NC(=O)[C@H](Cc1ccc(O)cc1)NC(=O)[C@H](Cc1ccccc1)NC(=O)[C@@H](NC(=O)CN)C(C)C)C(=O)N[C@@H](Cc1c[nH]cn1)C(=O)N[C@@H](Cc1ccccc1)C(=O)O` [3102.0847] (H-GVFYRPLHF-OH) yielded an IC50 of 5.5 nM.
Molecule `CC[C@H](C)[C@H](NC(=O)[C@H](CS)NC(=O)[C@H](CO)NC(=O)[C@@H](NC(=O)[C@H](CS)NC(=O)[C@H](CO)NC(=O)[C@H](CCSC)NC(=O)[C@@H](N)CCSC)[C@@H](C)CC)C(=O)N[C@@H](Cc1ccccc1)C(=O)O` [3102.0850] (H-MMSCISCIF-OH) has an IC50 of 7.6 nM.
For `CC[C@H](C)[C@H](NC(=O)[C@@H](N)CCCCN)C(=O)N[C@@H](CCCCN)C(=O)N[C@@H](Cc1c[nH]cn1)C(=O)N[C@@H](CCCCN)C(=O)NCC(=O)N[C@@H](CCSC)C(=O)N[C@@H](CO)C(=O)N[C@@H](Cc1ccccc1)C(=O)O` [3102.0851] (H-KIKHKGMSF-OH), the IC50 was 47 nM.
`CC[C@H](C)[C@H](NC(=O)CNC(=O)[C@@H](N)CO)C(=O)NCC(=O)N[C@H](C(=O)N[C@@H](Cc1ccccc1)C(=O)N[C@@H](CC(C)C)C(=O)N[C@@H](Cc1c[nH]cn1)C(=O)N[C@@H](Cc1ccc(O)cc1)C(=O)O)[C@@H](C)O` [3102.0852] (H-SGIGTFLHY-OH) gave an IC50 of 23 nM.
With `CC[C@H](C)[C@H](NC(=O)[C@@H](N)CO)C(=O)N[C@@H](CS)C(=O)N[C@@H](CO)C(=O)N[C@@H](CCCCN)C(=O)N[C@@H](CO)C(=O)N[C@@H](CC(N)=O)C(=O)N1CCC[C@H]1C(=O)N[C@@H](Cc1ccccc1)C(=O)O` [3102.0855] (H-SICSKSNPF-OH) the IC50 was 39 nM.
For `CSCC[C@H](NC(=O)[C@H](CCCCN)NC(=O)[C@H](CCCCN)NC(=O)[C@H](Cc1ccc(O)cc1)NC(=O)[C@@H](NC(=O)[C@@H](N)CC(C)C)C(C)C)C(=O)N[C@@H](CCC(N)=O)C(=O)N[C@@H](CO)C(=O)N[C@@H](Cc1ccc(O)cc1)C(=O)O` [3102.0856] (H-LVYKKMQSY-OH), the IC50 was 46 nM.
Work on `CC[C@H](C)[C@H](NC(=O)[C@H](CS)NC(=O)[C@H](CCCNC(=N)N)NC(=O)[C@H](Cc1c[nH]cn1)NC(=O)[C@H](CC(C)C)NC(=O)[C@@H](N)CC(C)C)C(=O)N[C@@H](Cc1ccc(O)cc1)C(=O)N[C@@H](Cc1c[nH]cn1)C(=O)N[C@@H](Cc1ccc(O)cc1)C(=O)O` [3102.0866] (H-LLHRCIYHY-OH) yielded an IC50 of 43 nM.
